These results are taken from PMC12030059, “Mechanistic Advances in the Therapeutic Application of Bixin for Lung Inflammation In Vitro and In Vivo” (Pharmaceuticals, 2025).

A short description of series [1]: Rat liver microsomal stability in the absence of cofactors (NADPH generating system). The conditions noted are these: rat liver microsomes without NADPH cofactors, 4 h, 50 μM, 37 °C. Format: in vitro ADME. The method, then:
A final solution of microsomes (1 mg/mL protein) in 250 μL of PBS at pH 7.4 containing 50 μM of bixin was prepared in the absence of an NADPH-regenerating metabolic cofactor system. The bixin was incubated with rat microsomes under these conditions for 0, 30, 60, 120, and 240 min with shaking in a water bath at 37 °C. The subsequent steps for protein precipitation, bixin extraction, and HPLC analysis were identical to those described for the rat plasma stability assay.
In general terms: Microsomes from liver hold many membrane-bound enzymes, among them those of drug oxidation.

Series [2] in a line: PAMPA-GIT permeability assay. Format: in vitro ADME. From the text: The parallel artificial membrane permeability assay (PAMPA) utilizes a 96-well plate system in a “sandwich” format, where one plate is positioned above another (PAMPA). The upper plate, known as the donor compartment, contains the compounds (test or control) dissolved in a buffered solution. […] The lipid composition of the PVDF filter varies depending on the type of permeability test. For gastrointestinal tract (GIT) permeability assessments, L-α-soy phosphatidylcholine in dodecane is used. Optical density values are measured at specified wavelengths for each compound and compared against controls. For GIT permeability, the absorbed fraction (Fa%) and permeability (Pe) are determined. […] Compounds for these assays were diluted from a 10 mM stock solution. These assays were conducted using a 1 mg/mL stock solution per compound.
In general terms: The PAMPA barrier holds no transporters, so it reflects passive diffusion.

The nature of series [3]: Rat plasma stability. It is filed as in vitro ADME. The conditions noted are these: over 4 h, 50 μM, 37 °C. The protocol: Two- to three-month-old healthy male Wistar rats (with an average weight of 385 g) were obtained from the Graduation Program in Pharmacology and Medicinal Chemistry Bioterium (CCS/UFRJ) (Rio de Janeiro, Brazil). The rats were fed ad libitum with Purina chow (Nuvilab, Curitiba, Brazil) and had unrestricted access to water. They were housed in a controlled environment maintained at 22 ± 2 °C, 50–70% relative humidity and a 12 h light/dark cycle. The local Animal Ethics Committee approved all experimental procedures (046/21).
A 10 mM stock solution of bixin was prepared in DMSO. Rat blood was collected with heparin and centrifuged. The plasma fraction was separated and diluted to 80% in PBS at pH 7.4. Then, 50 μL of the 80% rat plasma solution was added to a final volume of 250 μL of a KPE at pH 7.4 containing 50 μM of bixin. The bixin was incubated with rat plasma under these conditions for 0, 30, 60, 120, and 240 min with shaking in a water bath at 37 °C. […] The supernatant was collected, filtered through a 0.22 μm filter into a vial, and then analyzed by HPLC using an LC-20AD Shimadzu (Kyoto, Japan) system equipped with a 100-5C18 Kromasil (Bohus, Sweden) analytical column (4.6 mm × 250 mm, 5 μm) and an SPD M20A diode array detector Shimadzu (Kyoto, Japan) set to wavelengths of 271 nm and 457 nm. […]

The test system of series [4] is RAW 264.7 cells. The series can be described thus: Wound healing migration assay. It is filed as cell-based. The conditions noted are these: 24 h, mitomycin C pretreated; for cell migration (wound closure), compound alone: 200 μM, no stimulus; for cell migration induced by CSE: CSE 5% plus compound. The protocol:
RAW 264.7 cells were seeded in a 24-well plate (4.0 × 10^5 cells/well) and cultured until maximum confluence. Cells were then treated with mitomycin C (5 μg/mL) in FBS-free DMEM for 2 h, followed by washing with PBS. A linear scratch was made with a 200 μL pipette tip in each well. Cells were then stimulated for 24 h with the stimuli diluted in DMEM supplemented with 1% (v/v) FBS. Wound closure was monitored by capturing images at 0 and 24 h. The area of wound closure in each image was measured at five different points using a ruler tool, and an average was calculated for each image and condition. Cell migration was quantified as the percentage of wound closure at 24 h compared to the area at 0 h for each group.

Series [5] in a line: Kinetic solubility assay. The conditions noted are these: aqueous buffer, kinetic from dmso stock, 37 °C. Format: physicochemical. The protocol:
These solutions were incubated in a shaking water bath at 37 °C for 4 and 24 h. Immediately after each incubation period, the samples were centrifuged at 21,000× g Universal Centrifuge 320R Hettich (Tuttlingen, Germany) at 22 °C. The supernatant was collected, filtered through a 0.44 μm Millipore filter (Sigma-Aldrich—Saint Louis, MO, USA) into a vial, and analyzed using a HPLC LC-20AD Shimadzu (Kyoto, Japan) coupled with a DAD detector set at 457 nm. The mobile phase consisted of acetonitrile and methanol (85:15 v/v) using a 100-5C18 Kromasil (Bohus, Sweden) analytical column (4.6 mm × 250 mm, 5 μm) as the stationary phase in isocratic mode at 22 °C with a flow rate of 1 mL/min. A calibration curve was prepared using bixin in acetonitrile at concentrations ranging from 0 to 200 μM and analyzed under the same HPLC conditions. LogS was calculated as the base-10 logarithm of the solubility (in μM) for each time point.

Series [6] can be described thus: Solubility tests of the potassium salt. Format: physicochemical.
In series [7] the target is Nrf2/ARE axis. Nature of the series: Luciferase ARE reporter assay. It is filed as cell-based. The conditions noted are these: RAW 264.7 transfected with ARE luciferase reporter, 0–200 μM; read-out: EC50 in activating the Nrf2/ARE axis. The method, then: RAW 264.7 cells (3.5 × 10^5 cells/well) were seeded into 24-well plates in FBS-free DMEM. Next day, cells were transfected with the ARE-responsive luciferase reporter kit (#60514, BPS Bioscience, San Diego, CA, USA) in Opti-MEM containing Lipofectamine 2000 and incubated for 24 h. After stimulation with different concentrations of potassium bixinate (0–200 μM), the luciferase-containing medium was collected and incubated with luciferin substrate (Dual Luciferase Assay System) (#60683-1, BPS Bioscience, San Diego, CA, USA) according to the manufacturer’s instructions. Luminescence emitted by luciferin cleavage was measured using the Varioskan LUX plate reader (ThermoFisher Scientific, Waltham, MA, USA).
A general note: A reporter such as luciferase makes a cellular process visible.

In brackets after ≈: the same amount, converted by molar mass.

By solubility is commonly meant the concentration that dissolves in the medium under given conditions. Low readings indicate little dissolved substance, high ones much dissolved substance.

`COC(=O)/C=C/C(C)=C\C=C\C(C)=C\C=C\C=C(C)\C=C\C=C(C)\C=C\C(=O)O` [HBx, (2E,4E,6E,8E,10E,12E,14E,16Z,18E)-20-methoxy-4,8,13,17-tetramethyl-20-oxoicosa-2,4,6,8,10,12,14,16,18-nonaenoic acid]: in series [1], the “initial concentration maintained in microsomes” value was approximately 100%. The Papp in series [2] (L-α-soy phosphatidylcholine in dodecane, read-out: Experimental Pe) stood at 0.36 ×10⁻⁶ cm/s. The “Experimental Fa” value in series [2] (absorbed fraction) was determined as 12.79%. In addition, the “initial concentration retained in plasma” value in series [3] is listed as approximately 100%. The “cell migration (wound closure), compound alone” value in series [4] was “no migration occurred”. Besides, in series [4], the “cell migration induced by CSE” value is on record as “completely inhibited”. Besides, the solubility at 4 h was 64 µM (≈ 25.2 µg/mL) in series [5] (PBS buffer, pH 7.4, 4 h); less than 1 µM in series [5] (buffered solution pH 2.0 (commercial), pH 2.0, 4 h); 30 µM (≈ 11.8 µg/mL) in series [5] (potassium-phosphate-buffered saline solution (KPE) buffer, pH 6.6, 4 h). The solubility at 24 h in series [5] (PBS buffer, pH 7.4, 24 h) is 43 µM (≈ 17 µg/mL); in series [5] (buffered solution pH 2.0 (commercial), pH 2.0, 24 h), less than 1 µM; in series [5] (potassium-phosphate-buffered saline solution (KPE) buffer, pH 6.6, 24 h), 11 µM (≈ 4.34 µg/mL).

Consider potassium bixinate [KBx], for which, in series [6], the “aqueous solubility relative to bixin” value is “significant increase in the aqueous solubility”. Moreover, in series [7], the EC50 was 46 µM. In series [4], the “cell migration (wound closure), compound alone” value is reported as “no migration occurred” and the “cell migration induced by CSE” value is “completely inhibited”.
